Counter-ions that a name gives are not always drawn.
Legend:
[1] = system: blood perfusion; assay: In vivo blood perfusion (laser doppler perfusion imaging) in vitamin D3-induced limb ischemia rat model; settings: average blood perfusion recovery vs vehicle and sham (sham 100%), SD rats, 30 mg/kg s.c. daily D1-D5
Protocol: (§1) The effects of compounds 1, 6, 9, 14, 18, 31, and 39 over blood perfusion and tissue calcification after the inception of limb ischemia were tested using a rat model for a duration of 5 days. Limb ischemia was induced to all groups from D1 to D3 excepting the sham group, to which no ischemia was induced. The animals were administered placebo and active agent formulations from D1 to D5. Observations were taken at several points during the treatment from D0 to D5. All animals were weighed every day before treatment. Seventy-two male Sprague Dawley (SD) rats (Envigo Corp., Huntingdon, GB) weighing approximately 150-200 g were used. The rats were fed with a […]® Rod14-H diet ([…] GmbH, Soest, DE). The rats were divided in 9 groups, 8 animals per group, as follows: • Group 1-Control (Sham) • Group 2-Physiological saline solution • Group 3-Compound 1 • Group 4-Compound 6 • Group 5-Compound 9 • Group 6-Compound 14 • Group 7-Compound 18 • Group 8-Compound 31 • Group 9-Compound 39 Limb ischemia was induced in the rats of groups 2-9 by subcutaneous administration of 150,000 IU/kg vitamin D3 (cholecalciferol, Duphafral D3 1000; Zoetis Inc., Parsippany, NJ, US) in physiological saline solution (2 mL/kg) every day during D1 to D3. The rats of group 1 were not administered vitamin D3. The rats in groups 1 and 2 were administered 2 mL/kg of physiological saline solution daily from D1 to D5 via subcutaneous route. The animals in groups 3-9 were administered subcutaneously 30 mg/kg of compounds 1, 6, 9, 14, 18, 31, and 39, respectively, in physiological saline solution (2 mL/kg), every day from D1 to D5. Limb functional and ischemia status were evaluated by using a laser doppler perfusion imaging apparatus PeriCam PSI Normal Resolution (Perimed AB, Järfälla, SE) in all groups at D0 and D5. The perfusion difference and perfusion ratio were calculated by comparing the baseline and either D0 or D5 readings for each group. In addition, the blood perfusion ratio of each treatment group (i.e., groups 2 to 9) to sham group was also calculated. All rats of groups 1-9 were sacrificed on D5 30 minutes after dosing for determining their Ca baseline values. The animals were anesthetized by isoflurane inhalation. The whole aorta, carotids, femoral arteries, heart, and right kidney of the subjects were collected for calcium content measurement. The tissues were lyophilized for 48-72 h and weighed. The lyophilized tissues were then digested using a 1:1 HNO3:HClO4 mixture in a dry bath incubator for 2-4 h at 180° C. The digested tissues were subsequently diluted using ultra-pure MilliQ® water (MilliporeSigma (Merck KGaA), Burlington, MA, US) to a final volume of 5 mL (i.e., for femoral arteries and carotids) of 10 mL (i.e., for heart, kidneys, and aorta). Calcium content was quantified via inductively coupled plasma optical emission spectrometry (ICP-OES) using an Optima 7300 DV ICP-OES System spectrometer (PerkinElmer, Inc., Waltham, MA, US) according to the manufacturer's instructions. Average blood perfusion recovery compared to vehicle and sham were also calculated. Recovery for sham was 100%. Blood perfusion recovery calculated was using the following equation: 100-((BP sham-BP new drug)/(BP sham-BP vehicle)*100).

[2] = In vitro inhibition of calcium phosphate crystallization in human plasma (spectrophotometric assay); type: biochemical; settings: 0-100 μM, 1.5 mM phosphate, 12.5 mM calcium, pH 7.4, absorbance 550 nm, slope 6-24 min, read-out: Relative Potency
Protocol: The in vitro efficacy of the IP4-4,6 substituted derivatives (e.g., Compounds 1 to 53) of the invention on the inhibition of calcium phosphate crystallization in human plasma samples was evaluated according to a spectrophotometric assay previously described in the art (Ferrer M, et al., Sci Rep 2017; 7:6858, doi:10.1038/s41598-017-07203-x).
A 96-well plate was employed. Plasma was spiked (1 volume of the IP4-4,6 substituted derivatives of the invention per 19 volumes of plasma) with increasing concentrations of the derivatives in the range of 0-100 μM. Plasma was then centrifuged at 10,000 g at rt and subsequently mixed with a mixture of 5 mM hydrogen phosphate and 41.67 mM calcium to attain final concentrations of 1.5 mM phosphate and 12.5 mM calcium, respectively. All reagent solutions were filtered, and pH adjusted to 7.4.
Crystallization of calcium phosphate was monitored spectrophotometrically for 30 min at rt by measuring the increments in absorbance at 550 nm using the Biotek Powerwave XS Microplate spectrophotometer (BioTek Instruments, Inc., Winooski, VT, US). The plate was incubated at rt in an orbital shaker and absorbance measured every 3 min.
Plasma crystallization was assessed based on slope measurement in the linear range between 6 and 24 min from plots of increase in absorbance versus logarithm of time. The efficacy of different myo-inositol phosphates derivatives in preventing in vitro formation of calcium phosphate crystals was assessed in human plasma samples using the slopes obtained between 6- and 24-min. Inhibition of crystallization was measured by comparing the slopes of the control sample (blank plasma) with those of samples containing the inhibitor as shown below: […]

[3] = system: tissue calcification; assay: In vivo tissue calcification (calcium content by ICP-OES) in vitamin D3-induced limb ischemia rat model; settings: SD rats, vitamin D3 150,000 IU/kg s.c. D1-D3, 30 mg/kg s.c. daily D1-D5, sacrifice D5; for Inhibition of calcification (%) Femoral: femoral arteries; for Inhibition of calcification (%) Kidney: right kidney
Protocol: as §1, with “D5.” for “D5. Limb functional and ischemia status were evaluated by using a laser doppler perfusion imaging apparatus PeriCam PSI Normal Resolution (Perimed AB, Järfälla, SE) in all groups at D0 and D5. The perfusion difference and perfusion ratio were calculated by comparing the baseline and either D0 or D5 readings for each group. In addition, the blood perfusion ratio of each treatment group (i.e., groups 2 to 9) to sham group was also calculated.”

| Compound | BP recovery (%) [1] | EC50 [2] [µM] | Inhibition of calcification (%) Aorta [3] | Inhibition of calcification (%) Carotid [3] | Inhibition of calcification (%) Femoral [3] | Inhibition of calcification (%) Heart [3] | Inhibition of calcification (%) Kidney [3] |
| --- | --- | --- | --- | --- | --- | --- | --- |
| COCc1cn(CCCCCCO[C@@H]2[C@@H](OP(=O)([O-])[O-])[C@H](OCCCCCCn3cc(COC)nn3)[C@@H](OP(=O)([O-])[O-])[C@@H](OP(=O)([O-])[O-])[C@H]2OP(=O)([O-])[O-])nn1.[Na+].[Na+].[Na+].[Na+].[Na+].[Na+].[Na+].[Na+] [Compound 39, 4,6-O-bis(6-(4-(methoxymethyl)-1H-1,2,3-triazol-1-yl)hexyl)-myo-inositol-1,2,3,5-tetrakis(phosphate) octasodium salt] | Over (Average blood perfusion recovery over or under 25%.) | ≤ 5 | Over (Average inhibition percentage over or under 25% inhibition of calcification.) | Under (Average inhibition percentage over or under 25% inhibition of calcification.) | Over (Average inhibition percentage over or under 25% inhibition of calcification.) | Over (Average inhibition percentage over or under 25% inhibition of calcification.) | Over (Average inhibition percentage over or under 25% inhibition of calcification.) |
| CCCCCO[C@@H]1[C@@H](OP(=O)([O-])[O-])[C@H](OCCCCC)[C@@H](OP(=O)([O-])[O-])[C@@H](OP(=O)([O-])[O-])[C@H]1OP(=O)([O-])[O-].[Na+].[Na+].[Na+].[Na+].[Na+].[Na+].[Na+].[Na+] [Compound 1, 4,6-O-dipentyl-myo-inositol-1,2,3,5-tetrakis(phosphate) octasodium salt] | Under (Average blood perfusion recovery over or under 25%.) | ≤ 5 | Over (Average inhibition percentage over or under 25% inhibition of calcification.) | Under (Average inhibition percentage over or under 25% inhibition of calcification.) | Over (Average inhibition percentage over or under 25% inhibition of calcification.) | Over (Average inhibition percentage over or under 25% inhibition of calcification.) | Over (Average inhibition percentage over or under 25% inhibition of calcification.) |
| COCCCCCCCOC1C(OP(=O)(O)O)C(OCCCCCCCOC)C(OP(=O)(O)O)C(OP(=O)(O)O)C1OP(=O)(O)O (stereo not shown) [Compound 11, 4,6-O-bis(7-methoxyheptyl)-myo-inositol-1,2,3,5-tetrakis(phosphate) octasodium salt] | – | > 10 | – | – | – | – | – |
| O=P(O)(O)OC1C(OCCCCCn2cccn2)C(OP(=O)(O)O)C(OP(=O)(O)O)C(OP(=O)(O)O)C1OCCCCCn1cccn1 (stereo not shown) [Compound 16, 4,6-O-bis(5-(1H-pyrazol-1-yl)pentyl)-myo-inositol-1,2,3,5-tetrakis(phosphate) octasodium salt] | – | ≤ 5 | – | – | – | – | – |
| COc1ccc(CCCOC2C(OP(=O)(O)O)C(OCCCc3ccc(OC)cc3)C(OP(=O)(O)O)C(OP(=O)(O)O)C2OP(=O)(O)O)cc1 (stereo not shown) [Compound 43, 4,6-O-bis(3-(4-methoxyphenyl)propyl)-myo-inositol-1,2,3,5-tetrakis(phosphate) octasodium salt] | – | 5 to 10 | – | – | – | – | – |
| CC(=O)NCCCCCO[C@@H]1[C@@H](OP(=O)(O)O)[C@H](OCCCCCNC(C)=O)[C@@H](OP(=O)(O)O)[C@@H](OP(=O)(O)O)[C@H]1OP(=O)(O)O [Compound 27, 4,6-O-bis(5-acetamidopentyl)-myo-inositol-1,2,3,5-tetrakis(phosphate) octasodium salt] | – | ≤ 5 | – | – | – | – | – |
| O=C(O)CCCC(=O)NCCCOC1C(OP(=O)(O)O)C(OCCCNC(=O)CCCC(=O)O)C(OP(=O)(O)O)C(OP(=O)(O)O)C1OP(=O)(O)O (stereo not shown) [Compound 45, 4,6-O-bis((3-(4-carboxybutanamido)propyl))-myo-inositol-1,2,3,5-tetrakis(phosphate) decasodium salt] | – | ≤ 5 | – | – | – | – | – |

Reference: patent publication US20240109924A1, “IP4-4,6 SUBSTITUTED DERIVATIVE COMPOUNDS” (SANIFIT THERAPEUTICS, S.A., priority 2021, published 2024)
